In patent US7416870B2, “Methods of directing C-O bond formation utilizing a type II polyketide synthase system” (Wisconsin Alumni Research Foundation, priority 2002, dated 2008):

Experiments:
[1] = tested on: NonL; assay: In vitro assay of NonL as a CoA ligase (conversion of acids to CoA esters, HPLC); format: biochemical, Streptomyces griseus
Excerpt: Expression of nonL and characterization of NonL as a CoA ligase. The nonL gene was amplified from pBS2013 by PCR with forward primer of 5′-[…]-3′ (SEQ ID NO:12) (the NdeI site is underlined) and reverse primer of 3′-[…]-5′ (SEQ ID NO:13)(the EcoRI site is underlined) and cloned as a 1.7-kb NdeI-EcoRI fragment into the same sites of pET28a (Novagen, Madison, Wis.) to yield pBS2023. The expression of nonL in E. coli BL-21 (DE-3) (pBS2023) and purification of the resulting NonL protein by affinity chromatography on Ni-NTA resin were carried out under the standard conditions recommended by Novagen (FIG. 10). The incubation temperature was lowered to 15° C. to improve the solubility.
For in vitro assay of NonL as a CoA ligase, the complete assay solution (50 μl) consisted of 2 mM ATP, 2 mM CoA, 2 mM (±)-3, 10 mM KCl, 2 mM DTT, 5 mM MgCl2, 50 to 800 nM NonL in 10 mM Tris-HCl, pH 8.0. The reaction mixture was incubated at 30° C. for 2 hr and analyzed by HPLC on an Alltima C18 column (4.6×250 mm, 5μ, 100 Å, Alltech, Deerfield, Ill.). The column was first eluted in 20 mM NH4Ac, pH 5.8, for 5 min, followed by linear gradient from 0% to 50% CH3CN in 20 mM NH4Ac, pH 5.8 for 10 min, and maintained at 50% CH3CN in 20 mM NH4Ac for an additional 10 min, with flow rate of 0.8 ml/min and detection at 260 nm.
On the basis of its high sequence homology to a family of CoA ligases, the inventors reasoned that NonL, rather than directly contributing to the C—O bond-forming steps, instead activates (±)-3 into CoA esters (±)-2 that are then tetramerized into 1 by the NonJK KSs. To validate this hypothesis, the inventors expressed nonL in E. coli, purified NonL as a His6-tagged fusion protein (FIG. 10), and characterized NonL as a CoA ligase. The inventors monitored the in vitro assay of NonL by HPLC analysis: NonL catalyzes the conversion of (±)-3 to (±)-2, requiring CoA and ATP as co-substrates. Under the condition examined, 80% of (±)-3 was converted to (±)-2 in 2 hrs, confirming that NonL recognizes both (+)- and (−)-3 as substrates (FIG. 7). The identity of (±)-2 was verified by ESI-MS, yielding a characteristic (M−2H)^2− ion at m/z=474.7, consistent with the molecular formula of C31H52N7O19P3S.
In this particular experiment, the inventors expanded the category of synthetic 8 derivatives to determine the degree of flexibilities of each process in macrotetrolide biosynthesis. With minor modifications in the previously described method, (±)-8-n-propyl-nonactate (8), (±)-epi-8-n-propyl-nonactate (A), (±)-2-n-propyl-nonactate (B), and (±)-epi-2-n-propyl-nonactate (C) were prepared. These four compounds were tested for the CoA-activated by using purified NonL. […] The chromosomal DNA fragment encompassing nonJ and nonL from S. griseus DSM40695 was subcloned into pIJ4123 under the control of thiostrepton inducible promoter (tipAp) to generate pBS2045 that was introduced into S. lividans TK-24. For pIJ4123, see the reference; Takano, E.; White, J.; Thompson, C. J.; Bibb, M. J. Gene 1995, 160, 133.

[2] = tested on: NonJ; assay: Dimer formation with cell-free extract of S. lividans (pBS2045) harboring nonL and nonJ; format: biochemical, Streptomyces griseus; conditions: CFE of S. lividans (pBS2045)
Chain of NonJ (as listed by the source): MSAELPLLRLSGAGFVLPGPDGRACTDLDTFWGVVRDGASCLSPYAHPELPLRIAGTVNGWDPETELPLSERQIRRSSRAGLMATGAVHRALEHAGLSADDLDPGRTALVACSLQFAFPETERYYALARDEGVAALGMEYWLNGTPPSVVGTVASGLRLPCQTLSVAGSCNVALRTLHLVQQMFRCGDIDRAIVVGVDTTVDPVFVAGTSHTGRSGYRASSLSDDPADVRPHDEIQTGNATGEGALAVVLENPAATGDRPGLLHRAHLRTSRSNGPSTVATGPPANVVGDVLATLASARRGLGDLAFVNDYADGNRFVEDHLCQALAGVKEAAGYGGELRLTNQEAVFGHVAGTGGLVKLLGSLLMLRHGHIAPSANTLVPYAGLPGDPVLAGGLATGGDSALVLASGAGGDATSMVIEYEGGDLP
Description: Cell-free extract (CFE) preparation: S. lividans (pBS2045) were grown on Yeast Extract-Malt Extract (YEME, 34% sucrose) media supplemented with kanamycin (50 μg/ml), at 30° C. and 300 rpm for 1 d and added with thiostrepton (5 μg/ml). The thiostrepton-treated culture was maintained in the same condition for 1 d and then harvested by centrifugation (13,600 g, 20 min, 4° C.). Cell were lysed in 30 ml of 100 mM sodium phosphate buffer (pH, 8.0)-1 mM EDTA-50 mM KCl-10% glycerol with lysozyme (2 mg/ml) for 30 min at 4° C., sonicated for thirty 10-sec bursts at 300 W with a 30-sec cooling period between each burst. […]
Conditions for CFE-assay and chemical analysis: The assay solution consisted of 1 to 2 mM each of (±)-6, CoA, and ATP and 0.8 mg/ml of protein in 10 mM Tris-Cl (pH, 8.0)-10 mM KCl-2 mM DTT-5 mM MgCl2, and incubated at 30° C. for 1 h to 3 hs. […] The organic layer was analyzed for 1 by Thin-Layer Chromatography (TLC), Evaporative Light-Scattering Detector (ELSD)-High Performance Liquid Chromatography (HPLC), and positive Matrix-Assisted Laser Desorption Ionization (MALDI)-Mass Spectrometry (MS) analysis as previously described.^5d The aqueous layer was analyzed by HPLC with UV-detection, from which relevant peaks were collected and subjected to negative MALDI-MS analysis. […]

Compound	conversion into CoA derivative by purified NonL [1]	dimer (dimeric CoA ester) formation by NonJ [2]	conversion of (±)-3 to (±)-2 by NonL ([1]; in 2 hrs, 30° C., 2 mM ATP, 2 mM CoA, 2 mM (±)-3)
(±)-2-n-propyl-nonactate [B]	no conversion was evident		
(±)-epi-2-n-propyl-nonactate	no conversion was evident		
(±)-8-n-propyl nonactate [compound 8]	efficiently converted	converted the dimeric 8-CoA	
CC(O)CC1CCC(C(C)C(=O)O)O1 (racemic) [(±)-3, nonactic acid]			80%
(±)-epi-8-n-propyl-nonactate	efficiently converted	no dimeric A-CoA was found	
